Results from PubChem BioAssay AID220 (DTP/NCI, 2004).
Several values for one entry are separate records, joined by “and”; a condition that tells them apart may be missing. Identical values can stand only once. Inconclusive results are not listed.

Tested on: CD8F1 mice, subcutaneous mammary adenocarcinoma, T/C%
Assay: NCI In Vivo Anticancer Drug Screen. Data for tumor model Mammary Adenocarcinoma CD8F1 (subcutaneous) in CD8F1
Conditions: higher = larger tumour
How it was run: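 Mice carrying transplanted tumors received test compound, and survival or tumor size was recorded. Each value is the treated-group measurement divided by the corresponding measurement in vehicle-dosed controls.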

[1] = endpoint: median tumor weight change, dose: 250.0 mg/kg/injection, schedule: Q01DX001 (ip), vehicle: saline with Tween-80
[2] = endpoint: median tumor weight change, dose: 500.0 mg/kg/injection, schedule: Q01DX001 (ip), vehicle: saline with Tween-80
[3] = endpoint: median tumor weight change, dose: 1000.0 mg/kg/injection, schedule: Q01DX001 (ip), vehicle: saline with Tween-80
[4] = endpoint: median tumor weight (est.), dose: 12.5 mg/kg/injection, schedule: Q07DX005 (ip), vehicle: saline with Tween-80
[5] = endpoint: median tumor weight (est.), dose: 50.0 mg/kg/injection, schedule: Q07DX005 (ip), vehicle: saline with Tween-80
[6] = endpoint: median tumor weight (est.), dose: 100.0 mg/kg/injection, schedule: Q07DX005 (ip), vehicle: saline with Tween-80
[7] = endpoint: median tumor weight (est.), dose: 400.0 mg/kg/injection, schedule: Q07DX005 (ip), vehicle: saline with Tween-80
[8] = endpoint: median tumor weight change, dose: 500.0 mg/kg/injection, schedule: Q01DX001 (ip), vehicle: saline
[9] = endpoint: median tumor weight change, dose: 1000.0 mg/kg/injection, schedule: Q01DX001 (ip), vehicle: saline
[10] = endpoint: median tumor weight (est.), dose: 25.0 mg/kg/injection, schedule: Q07DX005 (ip), vehicle: saline with Tween-80
[11] = endpoint: median tumor weight (est.), dose: 200.0 mg/kg/injection, schedule: Q07DX005 (ip), vehicle: saline with Tween-80
[12] = endpoint: median tumor weight change, dose: 125.0 mg/kg/injection, schedule: Q01DX001 (ip), vehicle: saline with Tween-80
[13] = endpoint: median tumor weight (est.), dose: 800.0 mg/kg/injection, schedule: Q07DX005 (ip), vehicle: saline with Tween-80

SMILES: CCC1CC2CN(CCc3c([nH]c4ccccc34)C(C(=O)OC)(c3cc4c(cc3OC)N(C)C3C(O)(C(=O)OC)C(OC(C)=O)C5(CC)C=CCN6CCC43C65)C2)C1 (stereo not drawn)
- T/C (endpoint: median tumor weight change, dose: 0.31 mg/kg/injection, schedule: Q01DX001 (ip), vehicle: suspension in saline): 99 % of control
- T/C (endpoint: median tumor weight change, dose: 0.62 mg/kg/injection, schedule: Q01DX001 (ip), vehicle: saline): 165 % of control
- T/C (endpoint: median tumor weight change, dose: 0.62 mg/kg/injection, schedule: Q01DX001 (ip), vehicle: suspension in saline): 59 % of control
- T/C (endpoint: median tumor weight change, dose: 1.25 mg/kg/injection, schedule: Q01DX001 (ip), vehicle: saline): 110 % of control
- T/C (endpoint: median tumor weight change, dose: 1.25 mg/kg/injection, schedule: Q01DX001 (ip), vehicle: suspension in saline): 105 % of control
- T/C (endpoint: median tumor weight change, dose: 2.5 mg/kg/injection, schedule: Q01DX001 (ip), vehicle: suspension in saline): 88 % of control
- T/C (endpoint: median tumor weight change, dose: 5.0 mg/kg/injection, schedule: Q01DX001 (ip), vehicle: saline): 184 % of control
- T/C (endpoint: median tumor weight change, dose: 5.0 mg/kg/injection, schedule: Q01DX001 (ip), vehicle: suspension in saline): 109 % of control
- T/C (endpoint: median tumor weight change, dose: 10.0 mg/kg/injection, schedule: Q01DX001 (ip), vehicle: saline): 99 % of control
- T/C (endpoint: median tumor weight change, dose: 10.0 mg/kg/injection, schedule: Q01DX001 (ip), vehicle: suspension in saline): 70 % of control

SMILES: O=C(NO)c1cc(O)c(O)c(O)c1
- T/C (endpoint: median tumor weight change, dose: 300.0 mg/kg/injection, schedule: Q01DX001 (ip), vehicle: water): 124 % of control
- T/C (endpoint: median tumor weight change, dose: 600.0 mg/kg/injection, schedule: Q01DX001 (ip), vehicle: water): 78 % of control

SMILES: C=C(C)C(=O)OC1C/C(CO)=C\C(O)C/C(C)=C/C2OC(=O)C(=C)C21 (stereo not drawn)
- T/C (endpoint: median tumor weight change, dose: 12.0 mg/kg/injection, schedule: Q01DX001 (ip), vehicle: saline + alcohol): 86 % of control
- T/C (endpoint: median tumor weight change, dose: 25.0 mg/kg/injection, schedule: Q01DX001 (ip), vehicle: saline + alcohol): 49 % of control
- T/C (endpoint: median tumor weight change, dose: 50.0 mg/kg/injection, schedule: Q01DX001 (ip), vehicle: saline + alcohol): 69 % of control
- T/C (endpoint: median tumor weight change, dose: 100.0 mg/kg/injection, schedule: Q01DX001 (ip), vehicle: saline + alcohol): 60 % of control

SMILES: CC(=O)Nc1cscc1NC(C)=O
- T/C [1]: 73 % of control and 85 % of control
- T/C [2]: 71 % of control and 73 % of control
- T/C [3]: 74 % of control and 91 % of control

SMILES: Cc1ncc([N+](=O)[O-])n1CCSC(N)=O
- T/C [4]: 124 % of control and 99 % of control
- T/C [5]: 123 % of control
- T/C [6]: 96 % of control
- T/C [7]: 66 % of control

SMILES: CC1CC(C)CC(C)C(O)/C(C#N)=C/C=C/CC(C2CCCC2C(=O)O)OC(=O)CC(O)C(C)C1 (stereo not drawn)
- T/C (endpoint: median tumor weight (est.), dose: 0.5 mg/kg/injection, schedule: Q07DX005 (ip), vehicle: Klucel (hydroxypropylcellulose) (HPC)): 71 % of control
- T/C (endpoint: median tumor weight (est.), dose: 1.0 mg/kg/injection, schedule: Q07DX005 (ip), vehicle: Klucel (hydroxypropylcellulose) (HPC)): 59 % of control
- T/C (endpoint: median tumor weight (est.), dose: 2.0 mg/kg/injection, schedule: Q07DX005 (ip), vehicle: Klucel (hydroxypropylcellulose) (HPC)): 71 % of control
- T/C (endpoint: median tumor weight (est.), dose: 3.0 mg/kg/injection, schedule: Q07DX005 (ip), vehicle: Klucel (hydroxypropylcellulose) (HPC)): 105 % of control
- T/C (endpoint: median tumor weight (est.), dose: 4.0 mg/kg/injection, schedule: Q07DX005 (ip), vehicle: Klucel (hydroxypropylcellulose) (HPC)): 114 % of control
- T/C (endpoint: median tumor weight (est.), dose: 6.0 mg/kg/injection, schedule: Q07DX005 (ip), vehicle: Klucel (hydroxypropylcellulose) (HPC)): 124 % of control
- T/C (endpoint: median tumor weight (est.), dose: 8.0 mg/kg/injection, schedule: Q07DX005 (ip), vehicle: Klucel (hydroxypropylcellulose) (HPC)): 36 % of control
- T/C (endpoint: median tumor weight (est.), dose: 12.0 mg/kg/injection, schedule: Q07DX005 (ip), vehicle: Klucel (hydroxypropylcellulose) (HPC)): 102 % of control
- T/C (endpoint: median tumor weight (est.), dose: 16.0 mg/kg/injection, schedule: Q07DX005 (ip), vehicle: Klucel (hydroxypropylcellulose) (HPC)): 14 % of control

SMILES: O=S(CCCl)CCCl
- T/C (endpoint: median tumor weight (est.), dose: 1.56 mg/kg/injection, schedule: Q07DX005 (ip), vehicle: Klucel (hydroxypropylcellulose) (HPC)): 75 % of control
- T/C (endpoint: median tumor weight (est.), dose: 3.12 mg/kg/injection, schedule: Q07DX005 (ip), vehicle: Klucel (hydroxypropylcellulose) (HPC)): 100 % of control
- T/C (endpoint: median tumor weight (est.), dose: 6.25 mg/kg/injection, schedule: Q07DX005 (ip), vehicle: Klucel (hydroxypropylcellulose) (HPC)): 230 % of control
- T/C (endpoint: median tumor weight (est.), dose: 12.5 mg/kg/injection, schedule: Q07DX005 (ip), vehicle: Klucel (hydroxypropylcellulose) (HPC)): 91 % of control

SMILES: Cc1ccc2nc(-c3ccc4nc(-c5ccc(N=Nc6ccc(-c7nc8ccc(-c9nc%10ccc(C)c(S(=O)(=O)O)c%10s9)cc8s7)cc6)cc5)sc4c3)sc2c1S(=O)(=O)O
- T/C (endpoint: median tumor weight change, dose: 125.0 mg/kg/injection, schedule: Q01DX001 (ip), vehicle: suspension in saline): 94 % of control
- T/C (endpoint: median tumor weight change, dose: 250.0 mg/kg/injection, schedule: Q01DX001 (ip), vehicle: suspension in saline): 62 % of control

SMILES: Nc1n[nH]c(N)n1
- T/C (endpoint: mean tumor weight, dose: 25.0 mg/kg/injection, schedule: Q01DX009 (ip), vehicle: saline): 153 % of control
- T/C (endpoint: mean tumor weight, dose: 100.0 mg/kg/injection, schedule: Q01DX009 (ip), vehicle: saline): 207 % of control
- T/C (endpoint: median tumor weight (est.), dose: 100.0 mg/kg/injection, schedule: Q07DX005 (ip), vehicle: saline): 50 % of control and 67 % of control
- T/C (endpoint: median tumor weight (est.), dose: 200.0 mg/kg/injection, schedule: Q07DX005 (ip), vehicle: saline): 58 % of control and 68 % of control
- T/C (endpoint: median tumor weight (est.), dose: 1600.0 mg/kg/injection, schedule: Q07DX005 (ip), vehicle: saline): 27 % of control and 51 % of control
- T/C (endpoint: median tumor weight change, dose: 250.0 mg/kg/injection, schedule: Q01DX001 (ip), vehicle: saline): 75 % of control
- T/C [8]: 121 % of control
- T/C [9]: 120 % of control
- T/C (endpoint: median tumor weight change, dose: 2000.0 mg/kg/injection, schedule: Q01DX001 (ip), vehicle: saline): 174 % of control

SMILES: N#CC(=C1C=CC(=NO)C=C1)c1ccc(Cl)cc1
- T/C (endpoint: mean tumor weight, dose: 100.0 mg/kg/injection, schedule: Q07DX006 (ip), vehicle: saline with Tween-80): 36 % of control and 52 % of control
- T/C (endpoint: mean tumor weight, dose: 200.0 mg/kg/injection, schedule: Q07DX006 (ip), vehicle: saline with Tween-80): 19 % of control and 26 % of control
- T/C (endpoint: mean tumor weight, dose: 400.0 mg/kg/injection, schedule: Q07DX006 (ip), vehicle: saline with Tween-80): 7 % of control and 10 % of control
- T/C [10]: 98 % of control
- T/C [5]: 63 % of control
- T/C [6]: 58 % of control
- T/C [11]: 57 % of control
- T/C [7]: 36 % of control
- T/C (endpoint: median tumor weight change, dose: 62.5 mg/kg/injection, schedule: Q01DX001 (ip), vehicle: saline with Tween-80): 92 % of control
- T/C [12]: 88 % of control
- T/C [1]: 70 % of control
- T/C [2]: 28 % of control
- T/C [3]: 26 % of control

SMILES: CC12C(=O)C=CCC1=CCC1C2CCC2(O)C(=O)OC3(C)C4CC5(C)C(COC16OC23C5C6=O)C(=O)O4 (stereo not drawn)
- T/C (endpoint: median tumor weight change, dose: 250.0 mg/kg/injection, schedule: Q01DX001 (ip), vehicle: Klucel (hydroxypropylcellulose) (HPC)): 96 % of control
- T/C (endpoint: median tumor weight change, dose: 500.0 mg/kg/injection, schedule: Q01DX001 (ip), vehicle: Klucel (hydroxypropylcellulose) (HPC)): 35 % of control

SMILES: C=C1N(C)c2ccccc2C1(C)C
- T/C [12]: 115 % of control

SMILES: C=CCNc1nc2c(s1)CCc1cc(OC)c(OC)cc1-2
- T/C [4]: 65 % of control
- T/C [10]: 44 % of control
- T/C [5]: 55 % of control
- T/C [6]: 74 % of control
- T/C [11]: 81 % of control

SMILES: CN(C)CCN1C(=O)c2cccc3cc(N)cc(c23)C1=O
- T/C (endpoint: median tumor weight change, dose: 10.0 mg/kg/injection, schedule: Q01DX001 (ip), vehicle: saline with Tween-80): 81 % of control and 92 % of control
- T/C (endpoint: median tumor weight change, dose: 40.0 mg/kg/injection, schedule: Q01DX001 (ip), vehicle: saline with Tween-80): 42 % of control and 44 % of control and 61 % of control

SMILES: CC(=O)NCCCCCCNC(C)=O
- T/C (endpoint: median tumor weight change, dose: 125.0 mg/kg/injection, schedule: Q01DX001 (ip), vehicle: saline): 58 % of control
- T/C [8]: 67 % of control
- T/C [9]: 52 % of control and 72 % of control
- T/C (endpoint: median tumor weight change, dose: 4000.0 mg/kg/injection, schedule: Q01DX001 (ip), vehicle: saline): 39 % of control

SMILES: OCCOCC(F)(F)F
- T/C [4]: 57 % of control
- T/C [10]: 102 % of control and 106 % of control
- T/C [5]: 97 % of control and 104 % of control
- T/C [11]: 67 % of control
- T/C [13]: 70 % of control

SMILES: CC(=O)NC(Cc1ccc(F)cc1)C(=O)O (stereo not drawn)
- T/C [5]: 117 % of control
- T/C [6]: 80 % of control
- T/C [11]: 68 % of control
- T/C [13]: 153 % of control
